# Experiments:
# [1] = target: T1, Carboxypeptidase G2 (CPG2) (Pseudomonas sp., UniProt P06621); experiment: Carboxypeptidase G2 (CPG2) cleavage of prodrug to parent PBD imine, monitored by reversed phase HPLC; type: biochemical; conditions: 100 μM prodrug, CPG2 (1 unit), 100 mM Tris-HCl pH 7.3, 260 μM ZnCl2, 37° C.
# T1 sequence (P06621 23-415): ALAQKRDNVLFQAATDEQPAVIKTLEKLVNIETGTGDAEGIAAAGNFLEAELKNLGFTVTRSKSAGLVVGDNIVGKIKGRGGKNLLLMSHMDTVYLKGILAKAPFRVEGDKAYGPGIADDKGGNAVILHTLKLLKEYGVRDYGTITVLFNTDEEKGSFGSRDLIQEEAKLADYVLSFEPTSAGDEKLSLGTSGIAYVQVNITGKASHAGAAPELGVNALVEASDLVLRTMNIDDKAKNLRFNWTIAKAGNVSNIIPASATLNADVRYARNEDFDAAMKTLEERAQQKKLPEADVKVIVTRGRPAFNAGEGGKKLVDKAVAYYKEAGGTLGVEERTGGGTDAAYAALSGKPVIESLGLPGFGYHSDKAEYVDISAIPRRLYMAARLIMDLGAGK
# Procedure: (§1) An aliquot of a 10 mM stock solution of the carbamate monomer prodrug was diluted to 100 μM in Carboxypeptidase G2 (CPG2) assay buffer (100 mM Tris-HCl, pH 7.3; 260 μM ZnCl2). CPG2 (1 unit) was added and the reaction was incubated at 37° C. The reaction was monitored by reversed phase HPLC (C18 column, 5 μM particle size, 250 mm×4.6 mm; mobile phase 70% H2O/30% CH3CN/0.1% TFA; detection at 245 nM) with 20 μL aliquots being injected at 0, 10, 20, 30, 40, 50 and 60 min. The conversion of the prodrug to the parent imine 30 was complete in 60 minutes.
# as §1, with “carbamate dimer” for “carbamate monomer”, “0, 15,” for “0, 10, 20,”, “30, 45, 60” for “30, 40, 50”, “and 75” for “and 60”, “imine 61” for “imine 30”, “in 75 min.” for “in 60 minutes.”
# [2] = Photolytic deprotection of N-10 protected PBD (irradiation at 365 nM), monitored by reversed phase HPLC; type: physicochemical; conditions: 0.25 g in MeOH (10 mL) irradiated at 365 nM; HPLC at 1 h intervals against standard of parent PBD 30
# Procedure: A solution of the N-10 protected PBD (0.25 g) in MeOH (10 mL was irradiated at 365 nM. The reaction was monitored by reversed phase HPLC (C18 column, 5 μM particle size, 250 mm×4.6 mm; mobile phase 70% H2O/30% CH3CN/0.1% TFA; detection at 245 nM) against a standard sample of the parent PBD 30. Aliquots of the reaction mixture (20 μL) were injected at 1 h intervals. The conversion to parent PBD was complete in 12 h.
smiles,measurement,setting,value
"COc1cc2c(cc1OCCCCCOc1cc3c(cc1OC)C(=O)N1CCC[C@H]1[C@H](O)N3C(=O)OCc1ccc(OC(=O)N[C@@H](CCC(=O)O)C(=O)O)cc1)N(C(=O)OCc1ccc(OC(=O)N[C@@H](CCC(=O)O)C(=O)O)cc1)[C@@H](O)[C@@H]1CCCN1C2=O [Compound 68, 1,1′-[[Pentane-1,5-diyl]dioxy]bis[(11S,11aS)-10-[N-(4-(L-glutamylcarbonyloxy)benzyloxycarbonyl)]-11-hydroxy-7-methoxy-1,2,3,10,11,11a-hexahydro-5H-pyrrolo[2,1-c][1,4]benzodiazepine-5-one]]",conversion of the prodrug to the parent imine 61 complete in,[1]; HPLC aliquots every 15 min to 75 min,≤ 75 min
"COc1cc2c(cc1OC)N(C(=O)OCc1ccc(OC(=O)N[C@@H](CCC(=O)O)C(=O)O)cc1)[C@@H](O)[C@@H]1CCCN1C2=O [Compound 46, 2-[4-((11S,11aS)-7,8-Dimethoxy-11-hydroxy-5-oxo-1,2,3,10,11,11a-hexahydro-5H-pyrrolo[2,1-c][1,4]benzodiazepine-10-carbonyloxymethyl)-phenoxycarbonylamino]-pentanedioic acid]",conversion of the prodrug to the parent imine 30 complete in,[1]; HPLC aliquots every 10 min to 60 min,≤ 60 min
"COc1cc(COC(=O)N2c3cc(OC)c(OC)cc3C(=O)N3CCC[C@H]3[C@@H]2O)c([N+](=O)[O-])cc1OC [Compound 28, (11S,11aS)-7,8-Dimethoxy-11-hydroxy-5-oxo-1,2,3,10,11,11a-hexahydro-5H-pyrrolo[2,1-c][1,4]benzodiazepine-10-carboxylic acid 4,5-dimethoxy-2-nitro-benzyl ester]",conversion to parent PBD complete in,[2],≤ 12 h
